Consider one molecule from patent publication US7109246B1, “Pharmaceutical compositions comprising an amphoteric surfactant an alkoxylated cetyl alcohol and a polar drug” (Hewlett Healthcare Ltd, priority 1998, dated 2006).

The conditions of data set [1]: cited from earlier work.
Data set [2] can be described thus: Bioavailability and pharmacokinetics of sodium cromoglycate from the literature. The data set is classed as in vivo, human. To be noted: oral, maximum administered dose of 2800 mg in a 70 kg person.
Method: Urinary levels over time are probably a better measure of bioavailability.
Thus the maximum administered topical daily dose is expected to be 800 mg.
For data set [3] the following is noted: radioimmunoassay after applying an aqueous solution to skin; cited from earlier work.
In data set [4] the test system is antigen induced wheal and flare reaction in the skin. To be noted: cited from earlier work.
The conditions of data set [5]: cited from earlier work. The source holds these as a separate data set.

Where two headings read alike, the source gives them in different places.

Usually bioavailability stands for dose-corrected exposure relative to a reference, in per cent. Consider `O=C([O-])c1cc(=O)c2c(OCC(O)COc3cccc4oc(C(=O)[O-])cc(=O)c34)cccc2o1.[Na+].[Na+]` [sodium cromoglycate, disodium 5,5′-[(2-hydroxytrimethylene)dioxy]bis-[4-oxo-4H-1-benzopyran-2-carboxylate]], for which the metabolism result in data set [1] (in vivo) was “not metabolised”. Besides, the “removal from the blood” value in data set [1] (in vivo) was “rapidly removed”. Moreover, in data set [1] (oral, food allergy), the bioavailability is recorded as 1%. In data set [2], this molecule returned an absorbed dose of 28 mg. Also, the “sodium cromoglycate in the blood” value in data set [3] is given as “unable to detect”. Further, the “dependence of effect on pretreatment” value in data set [4] (3 days pretreatment versus single dose immediately preceding skin prick testing) is reported as “significant effect is observed only after pretreatment”. For the same molecule, in data set [4] (topical, human subjects), the “effect on antigen induced wheal and flare reaction” value is given as “inhibits”. Besides, the main adverse effects entry in data set [5] (clinical practice, generally transient) is “headache, dizziness, local irritation of the target organ and an unpleasant taste in the mouth”. Further, the adverse effects result was “burning and stinging” in data set [5] (eye drops); “epistaxis” in data set [5] (intra-nasal administration); “nausea, skin rash and joint pain” in data set [5] (oral administration).
